Data as given in patent publication US20250144224A1, “ABL INHIBITORS AND USES THEREOF” (The Regents of the University of California, priority 2021, published 2025).

Columns and labels:
[1] = test system: intracellular BCR-ABL1 in K562 CRISPRi/a cells; assay: Immunoblots of pharmacodynamic markers of BCR-ABL1 inhibition; assay type: cell-based, human; details: nanomolar concentrations (10 nM)
Experimental: FIGS. 3A-3F. […] Data represent two biological replicates. […] Data represent three biological replicates.
Cells (500,000 cells in 2 mL per well) were seeded into 6-well plates and incubated at 37° C. overnight. Following treatment with compounds at the concentrations and times indicated, cells were placed over ice, transferred to 2 mL microcentrifuge tubes, and pelleted at 500 g, 4° C. The pelleted cells were washed twice with ice-cold phosphate-buffered saline (PBS) and stored at −80° C. […] Proteins were separated by polyacrylamide gel electrophoresis (PAGE), transferred to 0.2 μm pore size nitrocellulose membranes (Bio-Rad) and blocked using blocking buffer [5% bovine serum albumin (Millipore) in Tris-buffered saline, 0.1% Tween 20 (TBST) supplemented with 0.02% NaN3]. Membranes were probed with primary antibodies against FKBP12 (ab58072) from Abcam and p-ABL1^Y245 (2861), p-CRKL^Y207 (3181), IFITM1 (13126), IFITM2 (13530), IFITM3 (59212), p-STAT5^Y694 (4322), and Tubulin (3873) from Cell Signaling Technology diluted (1:1000) in blocking buffer. After primary antibody incubation, membranes were treated with IRDye secondary antibodies (LI-COR Biosciences) according to manufacturer's recommendations and scanned on an Odyssey Imaging System (LI-COR Biosciences). Immunoblot scans were processed using ImageStudioLite 5.2.5 (LI-COR).

[2] = test system: kinases labeled by XO44 in K562 CRISPRi cells; assay: Live cell kinase occupancy profiling with XO44 probe; details: 100 nM, 4 h pretreatment, then XO44, live K562 CRISPRi cells
ABL1 kinase domain = target: T1, ABL1 kinase domain (Homo sapiens, UniProt P00519); assay: ATP-site kinase pulldown (KdELECT competition binding); details: 100-fold molar excess asciminib
T1 sequence (P00519 242-493 limits assumed): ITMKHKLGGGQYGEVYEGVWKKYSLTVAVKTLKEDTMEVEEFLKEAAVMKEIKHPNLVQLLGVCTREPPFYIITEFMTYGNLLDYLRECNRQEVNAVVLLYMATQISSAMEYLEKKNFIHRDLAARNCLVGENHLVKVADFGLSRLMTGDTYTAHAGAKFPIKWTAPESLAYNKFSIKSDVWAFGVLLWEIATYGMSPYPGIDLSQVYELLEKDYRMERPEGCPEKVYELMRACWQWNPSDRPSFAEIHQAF

[3] = test system: K562 cells (CRISPR base-edited Bcr-Abl T315I); assay: CellTiter-Glo cell viability, K562 Bcr-Abl T315I; details: Homo sapiens, K562, 72 h, read-out: EC50 (nM) CTG K562 T315I
[4] = Parallel artificial membrane permeability assay (PAMPA); assay type: in vitro ADME; details: 100 μM in PBS, 5 h, LC-MS
Experimental: PAMPA was performed by Quintara Discovery using the BioCoat Pre-coated PAMPA Plate System (Corning) as described previously (15) and based on manufacturer's recommendations. All compounds were assessed at 100 μM in PBS. Compound concentrations in donor and acceptor compartments were quantified using liquid chromatography-mass spectrometry (LC-MS) 5 h following compound addition into the donor compartment.

K562 cells (wild-type) = assay: CellTiter-Glo cell viability, K562 wild-type; details: Homo sapiens, K562, 72 h, read-out: EC50 (nM) CTG K562 wt
[5] = test system: K562 CRISPRi or CRISPRa cells with IFITM1-3 expression modulation; assay: Chemical-genetic interaction mapping (IC50 shift in cell viability assay); assay type: cell-based, human; details: IFITM1-3 knockdown (CRISPRi) or overexpression (CRISPRa), 72 h
Experimental: Cell viability was assessed by CellTiter-Glo (CTG) Luminescent Cell Viability Assay (Promega). Cells were equilibrated to room temperature before the addition of diluted (1:4 CTG reagent:PBS) CTG reagent (100 μL per well). Plates were agitated on an orbital shaker and luminescence signal was measured on a SpectraMax M5 (Molecular Devices) or Spark (Tecan) plate reader. Repeated measurements of luminescence were performed as technical replicates to determine incubation times optimal for signal-to-noise. Luminescence measurements were normalized to DMSO-treated values to determine relative cell viability.
Cells treated with compounds were evaluated for viability as described herein. […] The same top concentrations were used in K562 CRISPRa cells with the exception of HJB97 (1 μM), JQ1 (1 μM), MZ1 (1 μM), and dBET6 (100 nM). Using Prism 9 (GraphPad Software), a 4-parameter nonlinear regression model was fit to the viability data to determine IC50 values. IC50 values of sgRNA+ cells were normalized to that of non-sgRNA expressing cells to determine sensitivity/resistance chemical-genetic interactions mapped in FIG. 4B.

Abl_T315I = Abl_T315I (Homo sapiens, UniProt P00519, T315I); assay: SelectScreen Z'LYTE kinase assay, Abl T315I
Abl wt = Abl wt (Homo sapiens, UniProt P00519); assay: SelectScreen Z'LYTE kinase assay, Abl wt
[6] = test system: K562 CRISPRi or CRISPRa cells expressing sgRNAs targeting IFITM1-3; assay: Internally normalized cellular fluorescence uptake assay; details: 24 h; TAMRA-N3 10 nM, TAMRA-PEG8-N3 1 μM, RapaTAMRA 1 nM

Row | SMILES | EC50 [3] | artificial membrane permeability by PAMPA [4] | EC50 (K562 cells (wild-type)) | EC50 (Abl_T315I) | EC50 (Abl wt) | time required for maximal inhibition of target [1] | intracellular kinase occupancy (kinome-wide selectivity) [2] | effect of excess asciminib on ability to occupy the ATP-site (ABL1 kinase domain) | IFITM dependency of potency (IC50 shift in cell viability assay) [5] | change in relative cellular uptake with IFITM1-3 knockdown / overexpression [6]
1 | CO[C@H]1C[C@@H]2CC[C@@H](C)[C@@](O)(O2)C(=O)C(=O)N2CCCC[C@H]2C(=O)O[C@H]([C@H](C)C[C@@H]2CC[C@@H](OCCOCc3cn(CCOCCOCCOCCOCCOCCOCCOCCOCCNC(=O)c4ccc(C(=O)[O-])c(-c5c6ccc(=[N+](C)C)cc-6oc6cc(N(C)C)ccc56)c4)nn3)[C@H](OC)C2)CC(=O)[C@H](C)/C=C(\C)[C@@H](O)[C@@H](OC)C(=O)[C@H](C)C[C@H](C)/C=C/C=C/C=C/1C [RapaTAMRA] |  |  |  |  |  |  |  |  |  | decreased uptake upon knockdown of IFITM1-3 and increased uptake upon overexpression
2 | Cc1ccc(C(=O)Nc2ccc(CN3CCN(C(=O)CCOCCOCCOCCOCCOCCOCCOCCOCCOCCOCCOCCOCCNC(=O)C4CCN(c5ncc(C(=O)Nc6ccc(OC(F)(F)Cl)cc6)cc5-c5ccn[nH]5)CC4)CC3)c(C(F)(F)F)c2)cc1C#Cc1cnc2cccnn12 [PonatiLink-1-12] | 43.7 nM |  | 2.76 nM | 3580 nM | 319 nM |  |  |  |  | 
3 | Cc1ccc(C(=O)Nc2ccc(CN3CCN(C(=O)CCOCCOCCOCCOCCOCCOCCOCCOCCOCCOCCOCCOCCOCCOCCOCCOCCNC(=O)C4CCN(c5ncc(C(=O)Nc6ccc(OC(F)(F)Cl)cc6)cc5-c5ccn[nH]5)CC4)CC3)c(C(F)(F)F)c2)cc1C#Cc1cnc2cccnn12 [PonatiLink-1-16] | 28.7 nM |  | 1.4 nM | 229 nM | 82 nM |  |  |  |  | 

Second part, led by results:

Row | EC50 [3] | artificial membrane permeability by PAMPA [4] | EC50 (K562 cells (wild-type)) | EC50 (Abl_T315I) | EC50 (Abl wt) | SMILES | time required for maximal inhibition of target [1] | intracellular kinase occupancy (kinome-wide selectivity) [2] | effect of excess asciminib on ability to occupy the ATP-site (ABL1 kinase domain) | IFITM dependency of potency (IC50 shift in cell viability assay) [5] | change in relative cellular uptake with IFITM1-3 knockdown / overexpression [6]
4 | > 300 nM | impermeable | 2.47 nM |  |  | Cc1nc(Nc2ncc(C(=O)Nc3c(C)cccc3Cl)s2)cc(N2CCN(C(=O)CCOCCOCCOCCOCCOCCOCCOCCOCCOCCOCCOCCOCCNC(=O)C3CCN(c4ncc(C(=O)Nc5ccc(OC(F)(F)Cl)cc5)cc4-c4ccn[nH]4)CC3)CC2)n1 [DasatiLink-1] | multiple hours | observable intracellular occupancy of only a single kinase | impaired the ability of DasatiLink-1 to occupy the ATP-site | validated the IFITM dependency | 
5 | 26.2 nM |  | 1.02 nM | 215 nM | 10.8 nM | Cc1ccc(C(=O)Nc2ccc(CN3CCN(C(=O)CCOCCOCCOCCOCCOCCOCCOCCOCCOCCOCCOCCOCCOCCOCCOCCOCCOCCOCCOCCOCCNC(=O)C4CCN(c5ncc(C(=O)Nc6ccc(OC(F)(F)Cl)cc6)cc5-c5ccn[nH]5)CC4)CC3)c(C(F)(F)F)c2)cc1C#Cc1cnc2cccnn12 [PonatiLink-1-20] |  |  |  |  | 
6 | > 300 nM |  | 2.94 nM |  | 1.04 nM | Cc1nc(Nc2ncc(C(=O)Nc3c(C)cccc3Cl)s2)cc(N2CCN(C(=O)CCOCCOCCOCCOCCOCCOCCOCCOCCNC(=O)C3CCN(c4ncc(C(=O)Nc5ccc(OC(F)(F)Cl)cc5)cc4-c4ccn[nH]4)CC3)CC2)n1 [DasatiLink-3] |  |  |  |  | 
7 | > 300 nM |  | 2.62 nM |  | 1.81 nM | Cc1nc(Nc2ncc(C(=O)Nc3c(C)cccc3Cl)s2)cc(N2CCN(C(=O)CCOCCOCCOCCOCCOCCOCCNC(=O)C3CCN(c4ncc(C(=O)Nc5ccc(OC(F)(F)Cl)cc5)cc4-c4ccn[nH]4)CC3)CC2)n1 [DasatiLink-4] |  |  |  |  | 
